Square brackets hold non-standard residues; d marks the D form. Peptide text beside a SMILES is read from it.
Key:
[1] = molecular target: Opioid receptor, delta 1b (Danio rerio, UniProt B3DH72); test: Displacement of [3H]DPN from zebrafish delta 1b opioid receptor expressed in HEK293 cell membranes after 4 hrs by scintillation counting method
[2] = molecular target: Mu opioid receptor-like OR2 (Danio rerio, UniProt B8JHS2); test: Displacement of [3H]DPN from zebrafish mu opioid receptor expressed in HEK293 cell membranes after 1 hr by scintillation counting method
[3] = system: Mus musculus; test: Antinociceptive activity in C57BL6/J mouse assessed as analgesia at 8 mg/kg, ip measured after 60 mins by tail flick test (reference value: 3%); type: functional
[4] = system: Mus musculus; test: Antinociceptive activity in C57BL6/J mouse assessed as analgesia at 5 mg/kg, ip measured after 90 mins by tail flick test (reference value: 10%); type: functional
[5] = system: Mus musculus; test: Antinociceptive activity in C57BL6/J mouse assessed as analgesia at 5 mg/kg, ip measured after 30 mins by tail flick test (reference value: -7%); type: functional
[6] = system: Mus musculus; test: Antinociceptive activity in C57BL6/J mouse assessed as analgesia at 8 mg/kg, ip measured after 90 mins by tail flick test (reference value: 10%); type: functional
[7] = molecular target: Opioid receptor homologue (Danio rerio, UniProt A3QJX7); test: Displacement of [3H]DPN from zebrafish delta 1a opioid receptor expressed in HEK293 cell membranes after 1 hr by scintillation counting method
[8] = system: Mus musculus; test: Antinociceptive activity in C57BL6/J mouse assessed as analgesia at 8 mg/kg, ip measured after 120 mins by tail flick test (reference value: -8%); type: functional
[9] = system: Mus musculus; test: Antinociceptive activity in C57BL6/J mouse assessed as analgesia at 5 mg/kg, ip measured after 120 mins by tail flick test (reference value: -8%); type: functional
[10] = system: Mus musculus; test: Antinociceptive activity in C57BL6/J mouse assessed as analgesia at 5 mg/kg, ip measured after 60 mins by tail flick test (reference value: 3%); type: functional
[11] = system: Mus musculus; test: Antinociceptive activity in C57BL6/J mouse assessed as analgesia at 8 mg/kg, ip measured after 30 mins by tail flick test (reference value: -7%); type: functional

Opioid receptor, delta 1b, sequence (B3DH72 whole entry): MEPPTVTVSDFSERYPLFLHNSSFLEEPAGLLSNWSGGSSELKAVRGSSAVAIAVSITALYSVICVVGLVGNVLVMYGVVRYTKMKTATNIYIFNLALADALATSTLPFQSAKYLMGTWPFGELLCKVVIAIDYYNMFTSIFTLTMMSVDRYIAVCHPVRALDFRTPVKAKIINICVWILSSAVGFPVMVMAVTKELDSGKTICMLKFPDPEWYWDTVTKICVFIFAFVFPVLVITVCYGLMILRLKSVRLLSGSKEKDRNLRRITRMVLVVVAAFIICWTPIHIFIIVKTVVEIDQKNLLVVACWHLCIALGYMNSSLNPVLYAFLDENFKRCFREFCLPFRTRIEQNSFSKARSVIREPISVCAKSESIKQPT
Mu opioid receptor-like OR2, sequence (B8JHS2 whole entry): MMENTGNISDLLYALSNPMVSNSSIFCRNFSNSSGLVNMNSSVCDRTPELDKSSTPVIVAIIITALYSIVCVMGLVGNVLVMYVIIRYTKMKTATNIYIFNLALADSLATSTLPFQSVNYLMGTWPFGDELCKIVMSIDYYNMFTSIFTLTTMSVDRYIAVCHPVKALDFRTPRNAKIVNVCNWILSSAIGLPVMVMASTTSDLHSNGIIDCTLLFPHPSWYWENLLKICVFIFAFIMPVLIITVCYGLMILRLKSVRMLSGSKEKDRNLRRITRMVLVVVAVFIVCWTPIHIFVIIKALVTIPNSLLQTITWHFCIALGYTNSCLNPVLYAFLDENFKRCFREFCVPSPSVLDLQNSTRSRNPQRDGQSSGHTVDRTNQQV
Opioid receptor homologue, sequence (A3QJX7 whole entry): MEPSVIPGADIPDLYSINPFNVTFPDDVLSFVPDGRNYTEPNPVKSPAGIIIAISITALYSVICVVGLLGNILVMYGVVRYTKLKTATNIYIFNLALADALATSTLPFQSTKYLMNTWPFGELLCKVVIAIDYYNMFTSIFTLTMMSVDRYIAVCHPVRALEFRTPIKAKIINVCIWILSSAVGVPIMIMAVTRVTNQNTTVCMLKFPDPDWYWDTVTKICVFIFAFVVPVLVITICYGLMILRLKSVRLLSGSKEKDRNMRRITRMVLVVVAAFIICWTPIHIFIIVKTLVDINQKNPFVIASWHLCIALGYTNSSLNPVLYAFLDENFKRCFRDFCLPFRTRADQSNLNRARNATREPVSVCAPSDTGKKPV

Row | SMILES | Ki [1] [nM] | Ki [2] [nM] | Activity [3] [%] | Activity [4] [%] | Activity [5] [%] | Activity [6] [%] | Ki [7] [nM] | Activity [8] [%] | Activity [9] [%] | Activity [10] [%] | Activity [11] [%]
1 | CSCC[C@H](NC(=O)[C@H](Cc1ccccc1)NC(=O)CNC(=O)CNC(=O)[C@@H](N)Cc1ccc(O)cc1)C(=O)O | 45 | 684 | – | – | – | – | – | – | – | – | –
2 | CSCC[C@@H](NC(=O)[C@@H](N)Cc1ccc(O)cc1)C(=O)NCC(=O)N[C@@H](Cc1ccccc1)C(=O)N1C[C@@H](O[C@H]2O[C@H](CO)[C@@H](O)[C@H](O)[C@@H]2O)C[C@H]1C(N)=O | 536 | 239 | 62 | 50 | 40 | 35 | 609 | 45 | 40 | 60 | 45
3 | CSCC[C@@H](NC(=O)[C@@H](N)Cc1ccc(O)cc1)C(=O)NCC(=O)N[C@@H](Cc1ccccc1)C(=O)N1C[C@@H](O[C@@H]2O[C@H](CO)[C@@H](O)[C@H](O)[C@H]2O)C[C@H]1C(N)=O | 159 | 313 | – | – | – | – | 389 | – | – | – | –
4 | CSCC[C@@H](NC(=O)[C@@H](N)Cc1ccc(O)cc1)C(=O)NCC(=O)N[C@@H](Cc1ccccc1)C(=O)N1C[C@@H](O[C@@H]2O[C@H](CO)[C@@H](O[C@H]3O[C@@H](CO)[C@H](O)[C@@H](O)[C@@H]3O)[C@H](O)[C@H]2O)C[C@H]1C(N)=O | 528 | 223 | – | – | – | – | 843 | – | – | – | –
5 | CSCC[C@@H](NC(=O)[C@@H](N)Cc1ccc(O)cc1)C(=O)NCC(=O)N[C@@H](Cc1ccccc1)C(=O)N1C[C@@H](O[C@@H]2O[C@H](CO)[C@@H](O[C@H]3O[C@@H](CO)[C@@H](O)[C@@H](O)[C@@H]3O)[C@H](O)[C@H]2O)C[C@H]1C(N)=O | 559 | 203 | – | – | – | – | 635 | – | – | – | –
6 | CSCC[C@@H](NC(=O)[C@@H](N)Cc1ccc(O)cc1)C(=O)NCC(=O)N[C@@H](Cc1ccccc1)C(=O)N1C[C@@H](O[C@@H]2O[C@H](CO)[C@H](O)[C@H](O)[C@H]2O)C[C@H]1C(N)=O | 518 | 383 | – | – | – | – | 468 | – | – | – | –
7 | CSCC[C@@H](NC(=O)[C@@H](N)Cc1ccc(O)cc1)C(=O)NCC(=O)N[C@@H](Cc1ccccc1)C(=O)N1CCC[C@H]1C(N)=O (H-Y[dM]GFP-NH2) | 256 | 269 | – | – | – | – | 566 | – | – | – | –
8 | CN1CC[C@]23c4c5ccc(O)c4O[C@H]2[C@@H](O)C=C[C@H]3[C@H]1C5 [MORPHINE] | – | – | – | 45 | 30 | – | – | – | 30 | 51 | –
